Source: US10011573B2, “Human androgen receptor DNA-binding domain (DBD) compounds as therapeutics and methods for their use” (The University of British Columbia, priority 2014, dated 2018)

Tests used:
Stability in media = assay type: physicochemical
AR target genes = assay: Microarray genetic profile in LNCaP cells
[1] = molecular target: AR ligand binding domain (LBD) (Homo sapiens, UniProt P10275); assay: Biolayer interferometry (BLI) assay, small molecule binding to AR
Method: 4. Biolayer interferometry (BLI) assay: The direct reversible interaction between small molecules and the AR was measured as previously described (Lack, Axerio-Cilies et al. 2011).

[2] = tested on: MDV3100-resistant LNCaP cells (MR49F); assay: Cell viability (MTS) assay, MDV3100 (Enzalutamide)-resistant cells; assay type: cell-based, human; settings: 0.1 nM R1881
Method: 1. Cell Culture: LNCaP and PC3 human prostate cancer cells were obtained from American Type Culture Collection (ATCC, Manassas, Va.) and grown in RPMI 1640 medium supplemented with 5% fetal bovine serum (FBS) (Invitrogen). […]. All cells were maintained at 37° C. in 5% CO2.
7. Cell viability assay: The PC3, LNCaP, and MDV3100-resistant cells were plated at 3,000 cells per well in RPMI 1640 containing 5% charcoal stripped serum (CSS) in a 96-well plate, treated with 0.1 nM R1881 and compounds (0-25 μM) for 96 hrs.

AR AF1 = assay: AF1 assay (CREB and Gal4 plasmid in PC3 cells); assay type: cell-based
Text: As there are other known binding sites in AR including the hormone binding site (HBS), activation function-2 (AF2) site, binding function 3 (BF3) and N-terminal activation function-1 (AF1) site, we utilized other assays to rule out possible binding to those sites. […] Then we used an AF1 assay to measure whether the potency of this compound comes from the inhibition of AF1 transactivation.

AR ligand binding domain (LBD), sequence (P10275 669-900 limits assumed): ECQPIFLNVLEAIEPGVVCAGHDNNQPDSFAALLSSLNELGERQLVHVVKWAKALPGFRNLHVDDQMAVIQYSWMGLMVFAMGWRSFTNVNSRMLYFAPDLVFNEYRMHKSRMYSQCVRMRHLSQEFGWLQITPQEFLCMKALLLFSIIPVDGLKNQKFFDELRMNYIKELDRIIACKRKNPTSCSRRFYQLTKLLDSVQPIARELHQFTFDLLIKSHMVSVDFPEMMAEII

Compound	stability in media (Stability in media)	change of expression of genotoxin-responsive genes (AR target genes; 31 genes)	FKBP5 gene expression fold change vs R1881 treatment only (AR target genes; 14449 400 nM + 1 nM R1881, 24 h, p 0.08)	ATF3 gene expression fold change (AR target genes; 14449 400 nM + R1881)	CASP1 gene expression fold change (AR target genes; 14449 400 nM + R1881)	XPC gene expression fold change (AR target genes; 14449 400 nM + R1881)	binding in the C-terminal LBD (BLI) [1]	inhibition of cell growth, MDV3100/Enzalutamide-resistant cells [2]	inhibition of CREB and Gal4 (AF1) (AR AF1)
Brc1ncn(-c2csc(N3CCOCC3)n2)c1Br [Compound 14449]	fully stable in media	None of the genotoxin-responsive genes showed any significant change	0.81	0.99	1.00	1.03			
c1ccc(-c2csc(N3CCOCC3)n2)cc1 [Compound 14228, 4-(4-phenylthiazol-2-yl)morpholine]							no binding	strongly inhibits	no inhibition
